Test results from US11426402B2, “IRE1 activating compounds for use in therapy” (The Scripps Research Institute, priority 2019, dated 2022).

Legend:
BiP = test: qPCR of ATF6-regulated gene BiP in HEK293T cells; assay type: cell-based
Description: (§1) FIG. 3A-FIG. 3D. […] Error bars show SEM for n=3. […] Error bars show SEM for n=3. […] Error bars show SEM for n=3.
The compounds were measured for their abilities to induce expression of ER stress-responsive genes CHOP and BiP (or […]) regulated downstream of the PERK and ATF6 UPR signaling pathways, respectively^8, 40. The Tg-dependent expression of these two genes is largely insensitive to 4 μ8c, confirming their induction through an IRE1/XBP1s independent mechanism.

APP = APP immunoblots of lysates and conditioned media of CHO 7PA2 cells; assay type: cell-based; details: with compound 474
Description: FIGS. 5A-5D. […] Cells were treated for 18 hours, media was then replaced and conditioned in the presence of treatments for 24 hours before harvesting for ELISA assay. Error bars represent SEM for n=3 replicates. Statistics calculated from one-tailed Student's t-test. *p<0.05, **p<0.01, ***p<0.001 (FIG. 5A). Quantification of media and lysate immunoblots from 474 treatment (10 μM) of APP. Error bars represent Standard Deviation for n=3 replicates. Statistics calculated from one-tailed Student's t-test. *p<0.05, **p<0.01 ***p<0.001 (FIG. 5B). Plot showing fraction of total remaining APP at each time point after S35 metabolic labeling of newly synthesized protein, accounting for the sum of APP in lysate and media. Error bars represent Standard Deviation for n=3 replicates. Statistics calculated from one-tailed Student's t-test. *p<0.05, **p<0.01, ***p<0.001 (FIG. 5C). Plot showing fraction of secreted APP collected at 2 hours after metabolic labeling. Error bars represent Standard Deviation for n=3 replicates. Statistics calculated from one-tailed Student's t-test. *p<0.05, **p<0.01, ***p<0.001 (FIG. 5D). […]

[1] = tested on: IRE1/XBP1s signaling pathway; test: XBP1-RLuc splicing reporter in HEK293T-REx cells; assay type: cell-based; details: activators 10 μM, 4 μ8c 32 μM, 18 hr
Description: FIG. 2A and FIG. 2B. Activation of RLuc luminescence in HEK293T-Rex cells stably expressing XBP1s-RLuc treated with 10 μM IRE1 activators in the presence or absence of IRE1 inhibitor 4 μ8c (32 μM) for 18 hr. Luminescence is shown as % signal relative to Tg treatment (500 nM; 18 hr). Error bars represent standard deviation for n=3 replicates (FIG. 2A), Activation of RLuc luminescence in HEK293T-Rex cells stably expressing XBP1s-RLuc treated with the indicated concentrations of IRE1 activator compounds for 18 hr. Luminescence is shown as % signal relative to Tg treatment (500 nM; 18 hr) Error bars represent standard deviation for n=3 replicates (FIG. 2B).
HEK293T-Rex cells incorporating either the XBP1s-Rluc or ERSE-FLuc reporters were collected by trypsinization and resuspended at a density of 500,000 cells per mL. The assay was started by dispensing 5 μL of cell suspension into each well of white, solid-bottom 1536-well plates using a flying reagent dispenser (FRD) and placed into an online incubator for 3 hr. Cells were then treated with 34 nL/well of either test compounds to give final concentrations of 5.17 μM, DMSO (low control, final concentration 0.68%, 0% activation) or 37 μM of Delta-7 thapsigargin (high control, final concentration 500 nM, 100% activation). Plates were incubated for 18 hr at 37° C., removed from the incubator and equilibrated to room temperature for 10 min. Luciferase activity was detected by addition of 5 μL of ONE-Glo reagent (Promega) to each well. After a 10 min incubation time, light emission was measured with the ViewLux reader (PerkinElmer).
The percent activation of each test compound was calculated as follows: % Activation=100*(Test Compound-Median Low Control)/(Median High Control Median Low Control). Primary screening of the 646,275 compound library at Scripps Florida yielded 10,114 hits for XBP1s Renilla Luciferase activity at ≥13.83% activation by thapsigargin. Compounds that hit in more than 7 screens (promiscuity score) were eliminated, as well as those that elicited HSP70 activation. The top 6,391 remaining compounds (activation≥16.36%) were moved forward to triplicate confirmation screening and HEK TREX CTG cytotoxicity counterscreening. Duplicates were removed from the resulting list, and the top 638 activating compounds (≥15.92%) were moved forward for triplicate titration screening and HEK TREX CTG titration counterscreening.
A HEK293^T-REx cell line that stably expresses a XBP1-Renilla luciferase (XBP1-RLuc) splicing reporter was used to identify compounds that activated the IRE1/XBP1s signaling pathway^37. Activated IRE1selectively splices mRNA encoded by this reporter, resulting in a frame-shift that allows expression of the active Renilla luciferase enzyme^37. […]

DNAJB9 = assay type: cell-based; details: 4 μ8c 32 μM
secreted Aβ = test: Aβ ELISA of media conditioned on CHO 7PA2 cells (V717F APP); assay type: cell-based; details: 4 μ8c 32 μM
Description: FIGS. 5A-5D. […] Cells were treated for 18 hours, media was then replaced and conditioned in the presence of treatments for 24 hours before harvesting for ELISA assay. Error bars represent SEM for n=3 replicates. Statistics calculated from one-tailed Student's t-test. *p<0.05, **p<0.01, ***p<0.001 (FIG. 5A). Quantification of media and lysate immunoblots from 474 treatment (10 μM) of APP. Error bars represent Standard Deviation for n=3 replicates. Statistics calculated from one-tailed Student's t-test. *p<0.05, **p<0.01 ***p<0.001 (FIG. 5B). Plot showing fraction of total remaining APP at each time point after S35 metabolic labeling of newly synthesized protein, accounting for the sum of APP in lysate and media. Error bars represent Standard Deviation for n=3 replicates. Statistics calculated from one-tailed Student's t-test. *p<0.05, **p<0.01, ***p<0.001 (FIG. 5C). Plot showing fraction of secreted APP collected at 2 hours after metabolic labeling. Error bars represent Standard Deviation for n=3 replicates. Statistics calculated from one-tailed Student's t-test. *p<0.05, **p<0.01, ***p<0.001 (FIG. 5D).
7PA2 or 7WD10 cells were cultured on 96-well plates (Corning) and treated with IRE1 activating compounds +/−4 μ8c overnight. The medium was then replaced at 50% volume with treatment remaing, culture medium was collected after 24 hours. The medium was analyzed by an AP ELISA as follows. Monoclonal 6E10 anti-Aβ(residues 1-17) mouse IgG1, (Biolegend) was coated in […] carbonate buffer, pH 9.6, at 4° C. overnight on high binding assay black plates (Costar), washed with TBST (tris buffered saline with 0.05% Tween 20) and blocked with 5% non-fat milk in TBST. Samples and standards (condition 7PA2 media) were incubated for 1.5 hr, followed by addition of 4G8 antibody [anti-Aβ residues 17-24, mouse IgG2b (Biolegend)] conjugated to horseradish peroxidase (hrp) and incubated for 1.5 hr at 25° C. After washing, ABM substrate was added, followed by detection with an absorbance plate reader.
ELISA was used to monitor Aβ in media conditioned on a CHO cell line stably expressing the destabilized, disease-associated V717F APP mutant (CHO^7PA2)^45 treated with or without compounds 198, 474, and 970. […] The reduction in A secretion can be attributed to IRE1 activation because the reduced extracellular accumulation of Aβ is blocked by co-treatment with the active site IRE1 inhibitor 4 μ8c (FIG. 5A).

IRE1 = IRE1 (Homo sapiens, UniProt O75460); test: IRE1 phosphorylation by Phos-tag SDS-PAGE and immunoblotting in HEK293T cells; assay type: cell-based; details: co-treatment of Tg (500 nM) and 1 μM APY29
Description: as §1
Cell lysates were prepared as previously described in RIPA buffer (50 mM Tris, pH 7.5, 150 mM NaCl, 0.1% SDS, 1% Triton X-100, 0.5% deoxycholate and protease inhibitor cocktail (Roche). Total protein concentration in cellular lysates was normalized using the Bio-Rad protein assay. Lysates were then denatured with 1× Laemmli buffer+100 mM DTT and boiled before being separated by SDS-PAGE. Samples were transferred onto nitrocellulose membranes (Bio-Rad) for immunoblotting and blocked with 5% milk in Tris-buffered saline, 0.5% Tween-20 (TBST) following incubation overnight at 4° C. with primary antibodies. Membranes were washed in TBST, incubated with IR-Dye conjugated secondary antibodies and analyzed using Odyssey Infrared Imaging System (LI-COR Biosciences). Quantification was carried out with LI-COR Image Studio software.
Compounds that activate IRE1 through binding the IRE1 kinase active site and inhibiting IRE1 autophosphorylation can elicit off-target activity likely associated with binding to other protein kinases.^20, 35, 36 Thus, the purpose of this example was to define the dependence of the present compounds on IRE1 kinase activity. HEK293T cells were treated with compound 198, 474, or 970 in the absence or presence of Tg, and IRE1 phosphorylation was monitored by using Phos-tag SDS-PAGE and immunoblotting. As a control, cells were treated with APY29—an IRE1 kinase site inhibitor that allosterically activates the IRE1 RNAse^20 in the absence or presence of Tg.

XBP1 splicing = XBP1 splicing in HEK293T cells with or without KIRA6; assay type: cell-based
Description: To amplify the spliced and unspliced XBP1 mRNA, XBP1 primers were used as described previously.^21 PCR products were electrophoresed on 2.5% agarose gel. GAPDH (forward 5′[…]3′, reverse 5′[…]3′) was used as a loading control. The size difference between the spliced and the unspliced XBP1 is 26 nucleotides.
Next was determined the dependence of compound-dependent IRE1 RNAse activation on autophosphorylation. HEK293T cells were initially treated with the compounds in the absence or presence of KIRA6—a compound that binds the nucleotide binding pocket and inhibits both IRE1 kinase and RNAse activity^36. Co-treatment with KIRA6 blocked compound-dependent XBP1splicing.

[2] = tested on: RIDD targets SCARA3, Bloc1s1 and Col6A1; test: IRE1 RIDD activity from the RNAseq dataset in HEK293T cells; assay type: cell-based, human; details: 6 hours
Description: Cells were lysed and total RNA collected using the RNeasy mini kit, according to manufacturer's instructions (Qiagen). Conventional RNA-seq was conducted via BGI Americas on the BGI Proprietary platform, providing single-end 50 bp reads at 20 million reads per sample. Alignment of sequencing data was done using DNAstar Lasergene SeqManPro to the GRCh37. p 13 human genome reference assembly, and assembly data were imported into ArrayStar 12.2 with QSeq (DNAStar Inc.) to quantify the gene expression levels and normalization to reads per kilobase per million (RPKM). Differential expression analysis and statistical significance calculations between different conditions was assessed using “DESeq” in R, compared to vehicle-treated cells, using a standard negative binomial fit of the RPKM data to generate Fold Change quantifications.
Also evaluated was IRE1 RIDD activity induced by the compounds using the RNAseq dataset. Despite robust IRE1/XBP1s transcriptional activity following 6 hours of treatment, there was no evidence for RIDD after the same 6 hours.

Sequence of IRE1 (O75460 19-977): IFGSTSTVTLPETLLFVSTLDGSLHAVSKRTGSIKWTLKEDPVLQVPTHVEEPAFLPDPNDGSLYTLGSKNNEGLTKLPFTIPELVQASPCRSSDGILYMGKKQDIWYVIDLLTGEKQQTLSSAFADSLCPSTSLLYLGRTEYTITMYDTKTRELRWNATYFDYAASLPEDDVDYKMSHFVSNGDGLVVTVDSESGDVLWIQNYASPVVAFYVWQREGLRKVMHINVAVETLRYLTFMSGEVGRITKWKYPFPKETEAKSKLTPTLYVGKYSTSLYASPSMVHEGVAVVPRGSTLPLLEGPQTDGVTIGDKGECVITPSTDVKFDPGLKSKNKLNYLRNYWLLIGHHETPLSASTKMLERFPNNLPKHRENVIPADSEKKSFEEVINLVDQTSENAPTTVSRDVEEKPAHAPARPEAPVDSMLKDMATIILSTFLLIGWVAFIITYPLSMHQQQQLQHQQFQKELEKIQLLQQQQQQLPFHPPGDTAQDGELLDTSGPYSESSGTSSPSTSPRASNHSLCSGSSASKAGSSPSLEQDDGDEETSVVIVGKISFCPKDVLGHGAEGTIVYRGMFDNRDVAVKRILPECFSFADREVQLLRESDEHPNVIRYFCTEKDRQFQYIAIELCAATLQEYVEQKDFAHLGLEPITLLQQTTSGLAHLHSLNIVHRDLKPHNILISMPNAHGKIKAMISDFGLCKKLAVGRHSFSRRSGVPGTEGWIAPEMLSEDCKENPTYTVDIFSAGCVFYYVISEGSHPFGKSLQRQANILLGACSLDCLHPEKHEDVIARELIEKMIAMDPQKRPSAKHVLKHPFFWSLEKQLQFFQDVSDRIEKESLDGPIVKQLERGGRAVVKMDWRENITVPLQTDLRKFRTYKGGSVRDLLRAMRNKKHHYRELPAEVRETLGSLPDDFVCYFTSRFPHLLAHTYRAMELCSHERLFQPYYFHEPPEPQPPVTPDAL

Cc1cc(=O)oc2c(C=O)c(O)ccc12 [4 μ8c, reference compound]
effect of co-treatment on compound-dependent BiP increase (BiP): blocked | effect of 4 μ8c co-treatment on reduced APP levels (APP): reversed | effect of 4 μ8c co-administration on compound-dependent XBP1 splicing reporter activation [1]: blocked | effect of 4 μ8c co-treatment on compound-increased DNAJB9 expression (DNAJB9): inhibited | effect of 4 μ8c co-treatment on reduced extracellular Aβ (secreted Aβ): blocked

c1cc(Nc2cc(C3CC3)[nH]n2)nc(Nc2ccc3nc[nH]c3c2)n1 [APY29, reference compound]
IRE1 phosphorylation (IRE1): significant reductions

CC(C)(C)c1nc(-c2ccc(NC(=O)Nc3cccc(C(F)(F)F)c3)c3ccccc23)c2c(N)nccn12 [KIRA6]
effect of KIRA6 co-treatment on compound-dependent XBP1 splicing (XBP1 splicing): blocked

C/C=C(/C)C(=O)O[C@H]1C(C)=C2[C@H]([C@@H]1OC(=O)CCCCCCC)[C@@](C)(OC(C)=O)C[C@H](OC(=O)CCC)[C@@]1(O)[C@H]2OC(=O)[C@@]1(C)O [Tg, thapsigargin]
levels of RIDD targets SCARA3, Bloc1s1 and Col6A1 [2]: reduced
